The results in this text go back to US20230062119A1, “USE OF BIOMARKERS IN IDENTIFYING PATIENTS THAT WILL BE RESPONSIVE TO TREATMENT WITH A PRMT5 INHIBITOR” (Merck Sharp & Dohme LLC, priority 2019, published 2023).

The target of this assay is T1, Full-length (FL)-PRMT5-MEP50 enzyme complex (Homo sapiens, UniProt O14744).
T1 construct: Full-length (FL)-PRMT5-MEP50 enzyme complex (recombinant proteins from baculovirus-transfected Sf21 cells: FL-PRMT5; MW=73837 kDa and FL-MEP50; MW=38614); made in house; host or cells: baculovirus-transfected Sf21 insect cells
Kind of assay: PRMT5-MEP50 Enzyme Methylation Assay. It counts as biochemical. The settings on record: 1.0 nM PRMT5-MEP50, 75 nM biotinylated peptide, 15 μM SAM. A digest of the protocol:
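Compound was pre-incubated 60 min at 37°C with 1.0 nM enzyme and 15 μM SAM (final) in 50 mM Bicine pH 8.0, then 75 nM biotinylated H4R3(Me1) peptide was added and reacted 150 min; twenty-point 1:2 titration from 100000 nM, 1% DMSO. Formic acid quench; SAMDI mass spectrometry measured Me1-to-Me2 conversion, EC50 by 4- or 7-parameter regression.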

The mark [1] stands for this setting: one EC50: 4 parameters single site sigmoidal model, EC50 1: first value of 7 parameters biphasic model, read-out: Enzyme Methylation Assay (EC50 or EC50 1).
The mark [2] stands for this setting: second EC50 of 7 parameters biphasic model, read-out: Enzyme Methylation Assay (EC50 2).

Like-named read-outs stand apart in the source and are kept apart here.

T1 sequence (O14744 whole entry): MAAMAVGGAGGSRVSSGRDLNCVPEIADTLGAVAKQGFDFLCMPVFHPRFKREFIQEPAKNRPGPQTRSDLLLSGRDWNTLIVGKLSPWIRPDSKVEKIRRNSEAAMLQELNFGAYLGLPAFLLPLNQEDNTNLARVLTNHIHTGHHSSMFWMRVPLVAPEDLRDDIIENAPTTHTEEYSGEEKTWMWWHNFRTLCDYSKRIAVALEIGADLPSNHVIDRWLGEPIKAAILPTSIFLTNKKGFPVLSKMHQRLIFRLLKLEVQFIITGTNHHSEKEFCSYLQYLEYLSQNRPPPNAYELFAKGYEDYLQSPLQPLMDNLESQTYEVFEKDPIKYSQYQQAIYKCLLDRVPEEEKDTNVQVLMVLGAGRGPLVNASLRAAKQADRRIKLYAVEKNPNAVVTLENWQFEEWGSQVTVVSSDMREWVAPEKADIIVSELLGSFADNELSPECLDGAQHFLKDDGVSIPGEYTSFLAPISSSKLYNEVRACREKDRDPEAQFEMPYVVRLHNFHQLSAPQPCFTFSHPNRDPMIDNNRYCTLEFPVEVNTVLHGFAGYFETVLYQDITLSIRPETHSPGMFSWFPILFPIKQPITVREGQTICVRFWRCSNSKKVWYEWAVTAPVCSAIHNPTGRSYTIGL
T1 sequence (Q9BQA1 whole entry partner): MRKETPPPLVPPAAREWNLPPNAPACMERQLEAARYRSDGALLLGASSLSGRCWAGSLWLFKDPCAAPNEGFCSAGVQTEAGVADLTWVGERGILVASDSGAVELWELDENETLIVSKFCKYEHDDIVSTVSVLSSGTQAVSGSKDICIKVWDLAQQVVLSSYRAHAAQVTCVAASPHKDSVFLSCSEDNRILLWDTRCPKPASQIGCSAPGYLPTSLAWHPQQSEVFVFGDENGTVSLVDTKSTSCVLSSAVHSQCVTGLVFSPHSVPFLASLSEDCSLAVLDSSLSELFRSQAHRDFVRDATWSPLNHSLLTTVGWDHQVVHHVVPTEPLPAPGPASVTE

In the case of `CC(C)c1ncnc2c1ccn2[C@@H]1O[C@@H]2[C@H](Cc3ccc4cc(Br)c(N)nc4c3)CC[C@]2(O)[C@H]1O` [Example 83, (2R,3R,3aS,6S,6aR)-6-((2-amino-3-bromoquinolin-7-yl)methyl)-2-(4-isopropyl-7H-pyrrolo[2,3-d]pyrimidin-7-yl)hexahydro-3aH-cyclopenta[b]furan-3,3a-diol], under setting [1], the EC50 turned out to be 1.2 nM.

Consider `Cc1ncnc2c1c(F)cn2[C@@H]1O[C@@H]2[C@H](Cc3ccc4cc(Br)c(N)nc4c3)CC[C@]2(O)[C@H]1O` [Example 84, (2R,3R,3aS,6S,6aR)-6-((2-amino-3-bromoquinolin-7-yl)methyl)-2-(5-fluoro-4-methyl-7H-pyrrolo[2,3-d]pyrimidin-7-yl)hexahydro-3aH-cyclopenta[b]furan-3,3a-diol], for which the EC50 under setting [1] stood at 0.6 nM.

In the case of `Nc1nc2cc(O[C@H]3CC[C@@]4(O)[C@@H]3O[C@@H](n3ccc5cncnc53)[C@@H]4O)ccc2cc1Br` [Example 85, (2R,3R,3aS,6S,6aR)-6-((2-amino-3-bromoquinolin-7-yl)oxy)-2-(7H-pyrrolo[2,3-d]pyrimidin-7-yl)hexahydro-3aH-cyclopenta[b]furan-3,3a-diol], the EC50 runs as follows: under setting [1], 1.2 nM; under setting [2], 246 nM.

As to `Cc1ncnc2c1ccn2[C@@H]1O[C@@H]2[C@@H](Oc3ccc4cc(F)c(N)nc4c3)CC[C@]2(O)[C@H]1O` [Example 86, (2R,3R,3aS,6S,6aR)-6-((2-amino-3-fluoroquinolin-7-yl)oxy)-2-(4-methyl-7H-pyrrolo[2,3-d]pyrimidin-7-yl)hexahydro-3aH-cyclopenta[b]furan-3,3a-diol], the EC50 turned out to be 0.5 nM under setting [1] and 63.8 nM under setting [2].

For the compound `Nc1nc2cc(C[C@@H]3CC[C@@]4(O)[C@@H]3O[C@@H](n3ccc5c(C6CC6)ncnc53)[C@@H]4O)ccc2cc1Br` [Example 87, (2R,3R,3aS,6S,6aR)-6-((2-amino-3-bromoquinolin-7-yl)methyl)-2-(4-cyclopropyl-7H-pyrrolo[2,3-d]pyrimidin-7-yl)hexahydro-3aH-cyclopenta[b]furan-3,3a-diol], the EC50 under setting [1] came out at 0.5 nM.

Turning to `Cc1ncnc2c1ccn2[C@@H]1O[C@@H]2[C@H](Cc3ccc4cc(C(F)(F)F)c(N)nc4c3)CC[C@]2(O)[C@H]1O` [Example 88, (2R,3R,3aS,6S,6aR)-6-((2-amino-3-(trifluoromethyl)quinolin-7-yl)methyl)-2-(4-methyl-7H-pyrrolo[2,3-d]pyrimidin-7-yl)hexahydro-3aH-cyclopenta[b]furan-3,3a-diol], the concentration for a half-maximal effect (EC50) under setting [1] is 0.2 nM.

For `Cc1ncnc2c1ccn2[C@@H]1O[C@@H]2[C@@H](Oc3ccc4cc5c(nc4c3)NCC5)CC[C@]2(O)[C@H]1O` [Example 89, (2R,3R,3aS,6S,6aR)-6-((2,3-dihydro-1H-pyrrolo[2,3-b]quinolin-7-yl)oxy)-2-(4-methyl-7H-pyrrolo[2,3-d]pyrimidin-7-yl)hexahydro-3aH-cyclopenta[b]furan-3,3a-diol], the 50% effective concentration (EC50) under setting [1] is 1.3 nM.

In the case of `Cc1nc(C)c2ccn([C@@H]3O[C@@H]4[C@H](Cc5ccc6cc(F)c(N)nc6c5)CC[C@]4(O)[C@H]3O)c2n1` [Example 90, (2R,3R,3aS,6S,6aR)-6-((2-amino-3-fluoroquinolin-7-yl)methyl)-2-(2,4-dimethyl-7H-pyrrolo[2,3-d]pyrimidin-7-yl)hexahydro-3aH-cyclopenta[b]furan-3,3a-diol], the EC50 under setting [1] was determined as 0.9 nM.

On to `Cc1nc(C)c2ccn([C@@H]3O[C@@H]4[C@H](Cc5ccc6cc(Cl)c(N)nc6c5)CC[C@]4(O)[C@H]3O)c2n1` [Example 91, (2R,3R,3aS,6S,6aR)-6-((2-amino-3-chloroquinolin-7-yl)methyl)-2-(2,4-dimethyl-7H-pyrrolo[2,3-d]pyrimidin-7-yl)hexahydro-3aH-cyclopenta[b]furan-3,3a-diol], for which the EC50 under setting [1] worked out at 0.4 nM.

On to `CNc1ncnc2c1ccn2[C@@H]1O[C@@H]2[C@H](Cc3ccc4cc(Br)c(N)nc4c3)CC[C@]2(O)[C@H]1O` [Example 92, (2R,3R,3aS,6S,6aR)-6-((2-amino-3-bromoquinolin-7-yl)methyl)-2-(4-(methylamino)-7H-pyrrolo[2,3-d]pyrimidin-7-yl)hexahydro-3aH-cyclopenta[b]furan-3,3a-diol], for which, under setting [1], the EC50 was 0.5 nM.

`CNc1ncnc2c1ccn2[C@@H]1C[C@H](COc2ccc3cc(Br)c(N)nc3c2)[C@@](C)(O)[C@H]1O` [Example 93, (1R,2S,3R,5R)-5-(((2-amino-3-bromoquinolin-7-yl)oxy)methyl)-1-methyl-3-(4-(methylamino)-7H-pyrrolo[2,3-d]pyrimidin-7-yl)cyclopentane-1,2-diol]: the EC50 came to 0.5 nM under setting [1] and 110 nM under setting [2].

Turning to `CNc1ncnc2c1ccn2[C@@H]1O[C@@H]2[C@@H](Oc3ccc4cc(Br)c(N)nc4c3)CC[C@]2(O)[C@H]1O` [Example 94, (2R,3R,3aS,6S,6aR)-6-((2-amino-3-bromoquinolin-7-yl)oxy)-2-(4-(methylamino)-7H-pyrrolo[2,3-d]pyrimidin-7-yl)hexahydro-3aH-cyclopenta[b]furan-3,3a-diol], the EC50 under setting [1] was found to be 0.8 nM.

Turning to `CNc1ncnc2c1ccn2[C@@H]1O[C@@H]2[C@H](Cc3ccc4cc(F)c(N)nc4c3)CC[C@]2(O)[C@H]1O` [Example 95, (2R,3R,3aS,6S,6aR)-6-((2-amino-3-fluoroquinolin-7-yl)methyl)-2-(4-(methylamino)-7H-pyrrolo[2,3-d]pyrimidin-7-yl)hexahydro-3aH-cyclopenta[b]furan-3,3a-diol], the EC50 under setting [1] was found to be 2.8 nM.

`CNc1ncnc2c1c(F)cn2[C@@H]1O[C@@H]2[C@H](Cc3ccc4cc(Br)c(N)nc4c3)CC[C@]2(O)[C@H]1O` [Example 96, (2R,3R,3aS,6S,6aR)-6-((2-amino-3-bromoquinolin-7-yl)methyl)-2-(5-fluoro-4-(methylamino)-7H-pyrrolo[2,3-d]pyrimidin-7-yl)hexahydro-3aH-cyclopenta[b]furan-3,3a-diol]: the EC50 under setting [1] was 0.8 nM.

For `CNc1ncnc2c1ccn2[C@@H]1C[C@@H]2[C@H](Cc3ccc4cc(Br)c(N)nc4c3)CC[C@]2(O)[C@H]1O` [Example 97, (1S,2R,3aR,4S,6aR)-4-((2-amino-3-bromoquinolin-7-yl)methyl)-2-(4-(methylamino)-7H-pyrrolo[2,3-d]pyrimidin-7-yl)hexahydropentalene-1,6a(1H)-diol], under setting [1], the EC50 is 0.4 nM.

Turning to `C[C@]1(COc2ccc3cccnc3c2)O[C@@H](n2ccc3c(N)ncnc32)[C@H](O)[C@@H]1O` [Example 98, (2R,3S,4R,5R)-5-(4-amino-7H-pyrrolo[2,3-d]pyrimidin-7-yl)-2-methyl-2-((quinolin-7-yloxy)methyl)tetrahydrofuran-3,4-diol], the EC50 is, setting by setting: under setting [1], 3.4 nM; under setting [2], 2570 nM.

As to `C[C@@]1(O)[C@@H](COc2ccc3cccnc3c2)O[C@@H](n2ccc3c(N)ncnc32)[C@@H]1O` [Example 99, (2R,3S,4R,5R)-5-(4-amino-7H-pyrrolo[2,3-d]pyrimidin-7-yl)-3-methyl-2-((quinolin-7-yloxy)methyl)tetrahydrofuran-3,4-diol], the EC50 by setting is: under setting [1], 1.7 nM; under setting [2], 1880 nM.

As for `C[C@]1(COc2ccc3cc(Br)c(N)nc3c2)C[C@@H](n2ccc3c(N)ncnc32)[C@H](O)[C@@H]1O` [Example 100, (1S,2R,3R,5R)-3-(((2-amino-3-bromoquinolin-7-yl)oxy)methyl)-5-(4-amino-7H-pyrrolo[2,3-d]pyrimidin-7-yl)-3-methylcyclopentane-1,2-diol], the EC50 is 0.6 nM under setting [1] and 32 nM under setting [2].

Broadly, the EC50 is the concentration at which the effect is half-maximal.
